Our source for the EC50 values is patent publication US10730874B2 (Shire Human Genetic Therapies, Inc., priority 2018, dated 2020).

What is called EC50 is the concentration needed to bring the measured effect to its halfway point.

Structures are written as SMILES.

Sequence of human activated kallikrein enzyme (plasma kallikrein) (P03952 391-638): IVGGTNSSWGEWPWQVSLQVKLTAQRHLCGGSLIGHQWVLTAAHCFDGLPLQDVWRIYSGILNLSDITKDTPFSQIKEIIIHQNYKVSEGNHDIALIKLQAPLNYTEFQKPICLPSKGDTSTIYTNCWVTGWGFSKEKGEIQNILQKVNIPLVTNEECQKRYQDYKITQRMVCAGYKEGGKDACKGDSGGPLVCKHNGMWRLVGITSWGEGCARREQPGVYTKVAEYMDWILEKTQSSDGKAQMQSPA
Sequence of human activated kallikrein enzyme (plasma kallikrein) (P03952 20-390 partner): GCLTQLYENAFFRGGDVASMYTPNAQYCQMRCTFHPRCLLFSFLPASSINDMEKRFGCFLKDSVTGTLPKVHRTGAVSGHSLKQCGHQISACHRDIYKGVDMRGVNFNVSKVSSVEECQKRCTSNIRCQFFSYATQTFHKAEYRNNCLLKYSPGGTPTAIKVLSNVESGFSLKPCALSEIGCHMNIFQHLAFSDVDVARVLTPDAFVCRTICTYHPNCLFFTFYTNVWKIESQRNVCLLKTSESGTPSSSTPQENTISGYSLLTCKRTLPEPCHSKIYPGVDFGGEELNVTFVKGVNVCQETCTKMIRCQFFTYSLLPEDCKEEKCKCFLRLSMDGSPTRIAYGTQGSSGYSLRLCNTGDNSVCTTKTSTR

This assay addresses human activated kallikrein enzyme (plasma kallikrein) (Homo sapiens (Human), UniProt P03952). Description: Inhibition of human activated plasma kallikrein, fluorogenic peptide substrate assay, 500 pM enzyme format. Format: biochemical. To be noted: 500 pM activated kallikrein enzyme, 300 uM Pro-Phe-Arg-7-amido-4-methylcoumarin substrate, 30 min preincubation, 10 min at RT; read-out: Primary Dose Response Assay: Average EC50. How it is done: Example compounds were evaluated for inhibition of the human activated kallikrein enzyme in two formats of an assay employing a fluorogenic peptide substrate. In one assay format, the concentrations of reagents were as follows: 20 mM Tris pH 7.5, 1 mM EDTA, 150 mM sodium chloride, 0.1% PEG-400, 0.1% Triton X-100, 500 pM activated kallikrein enzyme, 300 uM Pro-Phe-Arg-7-amido-4-methylcoumarin substrate. Prior to reaction initiation with substrate, enzyme and inhibitors were preincubated for 30 min at RT. After initiation with substrate, reactions were incubated for 10 min at RT and fluorescence emission at 460 nm from 380 nm excitation measured with a microplate reader. In another assay format, the concentrations of reagents were as follows: 20 mM Tris pH 7.5, 1 mM EDTA, 150 mM sodium chloride, 0.1% PEG-400, 0.1% Triton X-100, 5 pM activated kallikrein enzyme, 300 uM Pro-Phe-Arg-7-amido-4-methylcoumarin substrate. Prior to reaction initiation with substrate, enzyme and inhibitors were preincubated for 30 min at RT. After initiation with substrate, reactions were incubated for 18 h at RT and fluorescence emission at 460 nm from 380 nm excitation measured with a microplate reader.
With `CCOC(=O)C(C)Cc1cc(C2CC2)cn2cc(Cn3cc(C(=O)NCc4ncn5ccc(Cl)c(F)c45)nn3)nc12` (stereo not drawn) [Example I-245a, ethyl 3-(2-((4-(((7-chloro-8-fluoroimidazo[1,5-a]pyridin-1-yl)methyl)carbamoyl)-1H-1,2,3-triazol-1-yl)methyl)-6-cyclopropylimidazo[1,2-a]pyridin-8-yl)-2-methylpropanoate], the EC50 is below 1 nM.

As to `O=C(NCc1ncn2ccc(Cl)c(F)c12)c1cn(Cc2[nH]c3ccc(C4CC4)cc3c2C(F)(F)F)nn1` [Example I-211, N-((7-chloro-8-fluoroimidazo[1,5-a]pyridin-1-yl)methyl)-1-((5-cyclopropyl-3-(trifluoromethyl)-1H-indol-2-yl)methyl)-1H-1,2,3-triazole-4-carboxamide], the EC50 fell in the range of 10 to 100 nM.

On to `O=C(NCc1ncn2ccc(Cl)cc12)c1cnn(Cc2cn3cc(C4CCC4)ccc3n2)c1` [Example I-61, N-((7-chloroimidazo[1,5-a]pyridin-1-yl)methyl)-1-((6-cyclobutylimidazo[1,2-a]pyridin-2-yl)methyl)-1H-pyrazole-4-carboxamide], for which the EC50 was 1 to 10 nM.

In the case of `O=C(NCc1ncn2ccc(Cl)c(F)c12)c1cn(Cc2cc3ccc(C4CC4)cn3c2)nn1` [Example I-256, N-((7-chloro-8-fluoroimidazo[1,5-a]pyridin-1-yl)methyl)-1-((6-cyclopropylindolizin-2-yl)methyl)-1H-1,2,3-triazole-4-carboxamide], the EC50 was 1 to 10 nM.

For `CC(C)(Cc1cc(C2CC2)cn2cc(Cn3cc(C(=O)NCc4ncn5ccc(Cl)c(F)c45)cn3)nc12)c1nn[nH]n1` [Example I-238, N-((7-chloro-8-fluoroimidazo[1,5-a]pyridin-1-yl)methyl)-1-((6-cyclopropyl-8-(2-methyl-2-(2H-tetrazol-5-yl)propyl)imidazo[1,2-a]pyridin-2-yl)methyl)-1H-pyrazole-4-carboxamide], the EC50 is below 1 nM.

For `O=C(NCc1ncn2ccc(Cl)c(F)c12)c1cn(Cc2cn3cc(C4CC4)cc(CC4(C(=O)O)CCCC4)c3n2)nn1` [Example I-221b, 1-((2-((4-(((7-chloro-8-fluoroimidazo[1,5-a]pyridin-1-yl)methyl)carbamoyl)-1H-1,2,3-triazol-1-yl)methyl)-6-cyclopropylimidazo[1,2-a]pyridin-8-yl)methyl)cyclopentane-1-carboxylic acid], the EC50 was below 1 nM.

As to `CC1CC1c1ccc2nc(Cn3cc(C(=O)NCc4ncn5ccc(Cl)cc45)cn3)cn2c1` (stereo not drawn) [Example I-43, N-((7-chloroimidazo[1,5-a]pyridin-1-yl)methyl)-1-((6-(2-methylcyclopropyl)imidazo[1,2-a]pyridin-2-yl)methyl)-1H-pyrazole-4-carboxamide], the EC50 is below 1 nM.

In the case of `O=C(NCc1ncn2ccc(Cl)c(F)c12)c1cn(Cc2cn3cc(C4CC4)c(F)cc3n2)nn1` [Example I-239, N-((7-chloro-8-fluoroimidazo[1,5-a]pyridin-1-yl)methyl)-1-((6-cyclopropyl-7-fluoroimidazo[1,2-a]pyridin-2-yl)methyl)-1H-1,2,3-triazole-4-carboxamide], the EC50 was 1 to 10 nM.

Regarding `O=C(NCc1ncn2ccc(Cl)c(F)c12)c1cn(Cc2cn3cc(C4CC4)cc(CS(=O)(=O)NCC(F)(F)F)c3n2)nn1` [Example I-281, N-((7-chloro-8-fluoroimidazo[1,5-a]pyridin-1-yl)methyl)-1-((6-cyclopropyl-8-((N-(2,2,2-trifluoroethyl)sulfamoyl)methyl)imidazo[1,2-a]pyridin-2-yl)methyl)-1H-1,2,3-triazole-4-carboxamide], the EC50 is below 1 nM.

For `Cc1c(C)n(C)c2ccc(Cn3cc(C(=O)NCc4ncn5ccc(Cl)c(F)c45)nn3)cc12` [Example I-269, N-((7-chloro-8-fluoroimidazo[1,5-a]pyridin-1-yl)methyl)-1-((1,2,3-trimethyl-1H-indol-5-yl)methyl)-1H-1,2,3-triazole-4-carboxamide], the EC50 lay in the range of 1 to 10 nM.

`O=C(NCc1ncn2ccc(Cl)cc12)c1cnn(Cc2cn3cc(C4CC4)cc(C4CC4C(=O)O)c3n2)c1` (stereo not drawn) [Example I-133, 2-(2-((4-(((7-chloroimidazo[1,5-a]pyridin-1-yl)methyl)carbamoyl)-1H-pyrazol-1-yl)methyl)-6-cyclopropylimidazo[1,2-a]pyridin-8-yl)cyclopropane-1-carboxylic acid]: the EC50 is below 1 nM.

As to `CC(NC(=O)c1cnn(Cc2cn3cc(C4CC4)ccc3n2)c1)c1ncn2ccc(Br)cc12` (stereo not drawn) [Example I-74, N-(1-(7-bromoimidazo[1,5-a]pyridin-1-yl)ethyl)-1-((6-cyclopropylimidazo[1,2-a]pyridin-2-yl)methyl)-1H-pyrazole-4-carboxamide], the EC50 lay in the range of 1 to 10 nM.

Take `O=C(NCc1ncn2ccc(Cl)c(F)c12)c1cn(Cc2cc3ccc(Cl)cc3o2)nn1` [Example I-197, N-((7-chloro-8-fluoroimidazo[1,5-a]pyridin-1-yl)methyl)-1-((6-chlorobenzofuran-2-yl)methyl)-1H-1,2,3-triazole-4-carboxamide]: the 50% effective concentration (EC50) is 100 to 2000 nM.

In the case of `O=C(NCc1ncn2ccc(Br)cc12)c1cnn(Cc2cn3cc(C4CC4)cnc3n2)c1` [Example I-76, N-((7-bromoimidazo[1,5-a]pyridin-1-yl)methyl)-1-((6-cyclopropylimidazo[1,2-a]pyrimidin-2-yl)methyl)-1H-pyrazole-4-carboxamide], the EC50 was below 1 nM.

For the compound `CC(C)=Cc1ccn2cc(Cn3cc(C(=O)NCc4ncn5ccc(Cl)cc45)cn3)nc2c1` [Example I-42, N-((7-chloroimidazo[1,5-a]pyridin-1-yl)methyl)-1-((7-(2-methylprop-1-en-1-yl)imidazo[1,2-a]pyridin-2-yl)methyl)-1H-pyrazole-4-carboxamide], the concentration for a half-maximal effect (EC50) fell in the range of 10 to 100 nM.

On to `O=C(NCc1ncn2ccc(Cl)cc12)c1cnn(Cc2cn3c(Cl)c(Br)ccc3n2)c1` [Example I-39, 1-((6-bromo-5-chloroimidazo[1,2-a]pyridin-2-yl)methyl)-N-((7-chloroimidazo[1,5-a]pyridin-1-yl)methyl)-1H-pyrazole-4-carboxamide], for which the EC50 lay within 1 to 10 nM.

In the case of `Cc1ccn2cnc(CNC(=O)c3cnn(Cc4cn5cc(C6CC6)ccc5n4)c3)c2c1` [Example I-4, 1-((6-cyclopropylimidazo[1,2-a]pyridin-2-yl)methyl)-N-((7-methylimidazo[1,5-a]pyridin-1-yl)methyl)-1H-pyrazole-4-carboxamide], the EC50 was 1 to 10 nM.

Regarding `CCOC(=O)c1cc(C2CC2)cn2cc(Cn3cc(C(=O)NCc4ncn5ccc(Cl)c(F)c45)nn3)nc12` [Example I-166a, ethyl 2-((4-(((7-chloro-8-fluoroimidazo[1,5-a]pyridin-1-yl)methyl)carbamoyl)-1H-1,2,3-triazol-1-yl)methyl)-6-cyclopropylimidazo[1,2-a]pyridine-8-carboxylate], the EC50 was below 1 nM.

For `O=C(NCc1ncn2ccc(Cl)c(F)c12)c1cnn(Cc2cn3cc(C4CC4)cc(Cc4nnco4)c3n2)c1` [Example I-214, 1-((8-((1,3,4-oxadiazol-2-yl)methyl)-6-cyclopropylimidazo[1,2-a]pyridin-2-yl)methyl)-N-((7-chloro-8-fluoroimidazo[1,5-a]pyridin-1-yl)methyl)-1H-pyrazole-4-carboxamide], the EC50 is below 1 nM.

Regarding `O=C(NCc1ncn2ccc(Cl)c(F)c12)c1cn(Cc2cc3ccc(Cl)cc3[nH]2)nn1` [Example I-222, 1-((6-chloro-1H-indol-2-yl)methyl)-N-((7-chloro-8-fluoroimidazo[1,5-a]pyridin-1-yl)methyl)-1H-1,2,3-triazole-4-carboxamide], the EC50 fell in the range of 100 to 2000 nM.

Consider `O=C(NCc1ncn2ccc(Cl)c(F)c12)c1cnn(Cc2nc3ccccn3n2)c1` [Example I-282, 1-([1,2,4]triazolo[1,5-a]pyridin-2-ylmethyl)-N-((7-chloro-8-fluoroimidazo[1,5-a]pyridin-1-yl)methyl)-1H-pyrazole-4-carboxamide], for which the EC50 was 100 to 2000 nM.

As to `O=C(NCc1ncn2ccc(Cl)c(F)c12)c1cn(Cc2cn3nc(C4CC4)cc(N4CC(C(=O)O)C4)c3n2)nn1` [Example I-265b, 1-(2-((4-(((7-chloro-8-fluoroimidazo[1,5-a]pyridin-1-yl)methyl)carbamoyl)-1H-1,2,3-triazol-1-yl)methyl)-6-cyclopropylimidazo[1,2-b]pyridazin-8-yl)azetidine-3-carboxylic acid], the EC50 is below 1 nM.

On to `O=C(NCc1ncn2ccc(Cl)c(F)c12)c1cn(Cc2cn3cc(C4CC4)ccc3n2)c(C(=O)O)n1` [Example I-261, 4-(((7-chloro-8-fluoroimidazo[1,5-a]pyridin-1-yl)methyl)carbamoyl)-1-((6-cyclopropylimidazo[1,2-a]pyridin-2-yl)methyl)-1H-imidazole-2-carboxylic acid], for which the EC50 is below 1 nM.

Take `O=C(NCc1ncn2ccc(Cl)cc12)c1cnn(Cc2cn3c(CO)cccc3n2)c1` [Example I-62, N-((7-chloroimidazo[1,5-a]pyridin-1-yl)methyl)-1-((5-(hydroxymethyl)imidazo[1,2-a]pyridin-2-yl)methyl)-1H-pyrazole-4-carboxamide]: the EC50 lay within 100 to 2000 nM.
